Eleven compounds from US11655247B2, “Nanoluc suicide substrates” (PROMEGA CORPORATION, priority 2018, dated 2023) can be followed below.

Entries after “also recorded” stand apart in the source; their conditions may differ.

For series [1], the target named is T1, NanoLuc (Oplophorus gracilirostris, UniProt Q9GV45, A31E/A60N/A81I/F95D/I117V/K70R/L54V/L99Q/M102K/N193R/P142E/Q151K/Q38R/Q45L/V71I/Y165I). It counts as biochemical. The following applies: relative value, Furimazine set to 1; NanoLuc; read three minutes after substrate addition. As to the method:
Luminescence Assay Procedure:
Each compound to be screened was dissolved in DMSO (5 mM) and then further diluted to 100 μM in NANO-GLO® Luciferase Assay Buffer. Km values were determined by first serially diluting substrates two-fold into NANO-GLO® Luciferase Assay Buffer. Substrate dilutions were then combined with an equal volume of NanoLuc diluted to 4 ng/ml in TBS+0.01% BSA. Autoluminescence was measured by combining the 100 uM dilution of substrate with TBS+0.01% BSA. Luminescence and autoluminescence values were measured in a GloMax®-Multi+ luminometer three minutes after substrate addition. Signal decay was measured by combining equal volumes of 100 uM of substrate with 4 ng/ml NanoLuc in TBS+0.01% BSA and then samples were read in five minute intervals for two hours using a GloMax®-Multi+. Km was calculated using GraphPad Prism using nonlinear Michaelis-Menten regression. Signal half-life values were calculated using GraphPad Prism Non-linear decay, plateau set to zero.

Series [2] is described as follows: Stability in solution noted at preparation. Particulars: note at preparation. In kind it is physicochemical.
For series [3], the target named is T1, NanoLuc. The series is described as follows: Inhibition of NanoLuc luciferase: blocking of furimazine luminescence after pre-incubation. It counts as biochemical. The following applies: for Inhibition of NanoLuc (bioluminescence upon later furimazine addition): compound incubated with NanoLuc first, then furimazine (10 μM) added. The method, then: Compounds were also tested for their ability to block furimazine luminescence with NanoLuc. Typically, NanoLuc (0.4 μg/mL) in DMEM was incubated with either furimazine or test compound (50 μM) while monitoring RLU's with a GloMax® luminometer for 10-60 minutes. After the set time, the plate was removed from the instrument, and a dose of furimazine (10 μM) was added to the well containing the test compound and monitored for 10-60 minutes.
FIGS. 3A-B depicts inhibition of Nluc luciferase by furimazine-h. Furimazine-h (10 μM) was incubated with NanoLuc in NanoGlo or DMEM for 15 or 10 minutes, respectively. This bright signal rapidly degrades to a fraction of the signal observed in the furimazine positive control wells.
FIG. 9 depicts inhibition of Nluc luciferase by furimazine-h. This is a reverse addition experiment as compared to FIG. 3. Furimazine (10 μM) was incubated with NanoLuc in NanoGlo® buffer for 15 minutes.
JRW-0855 and JRW-1088 were incubated with NanoLuc in DMEM for 12 minutes. […] After the incubation period, 10 μM furimazine was added to the well.

The subject of series [4] is NanoLuc-HaloTag fusion protein. The series is described as follows: Direct and two-step labeling with TCO-tetrazine or DBCO-azide pair, fluorescence imaging on SDS/PAGE gel. It counts as biochemical. Particulars: for Two-step labeling with tetrazine-FAM (JRW-1577): second step tetrazine-FAM (JRW-1577). As to the method: Similar to the previous example, NanoLuc-HaloTag protein was incubated with compounds to either directly label or label via the two-step process with FAM. Compounds were incubated with the NanoLuc-HaloTag fusion protein and analyzed by florescence imaging on SDS/PAGE gel.

Series [5] has as its system NanoLuc-HaloTag (Nluc-HT). The series is described as follows: Fluorescent labeling of NanoLuc-HaloTag, SDS/PAGE fluorescence imaging. In kind it is biochemical. The following applies: 0.5 μM protein, 50 μM label, 30 minutes, room temperature. The method, then:
The efficiency of the NanoLuc suicide substrates was compared with a chloroalkane-FAM substrate with a fusion protein in which the HaloTag protein (SEQ ID NO: 5) is fused to either glutathione transferase (GST) or NanoLuc.
Either FAM chloroalkane or coelenterazine FAM substrate was incubated with glutathione transferase-HaloTag (GST-HT) or NanoLuc-HaloTag (Nluc-HT) fusions. The reactions were with 0.5 μM protein (GST-HT or Nluc-HT) and 50 μM of label (100× excess of label) and incubated for 30 minutes at room temperature. The sample titrations of each sample were then loaded to the SDS/PAGE gel. The fluorescence (473ex) (Cy2 filter set) was read and quantified. […] Results are quantified in FIG. 8B.

Series [6] has as its target NanoBiT™ Binary luciferase (Oplophorus gracilirostris, UniProt Q9GV45, A31E/A60N/A81I/F95D/I117V/K70R/L54V/L99Q/M102K/P142E/Q151K/Q38R/Q45L/V71I/Y165I). As to the kind of experiment: Inhibition of NanoBiT Binary luciferase (HiBiT + LgBiT). It counts as biochemical. As to the method: Compounds were also tested for their ability to inhibit the NanoBiT™ Binary luciferase. HiBiT (SEQ ID NO: 3) and LgBiT (SEQ ID NO: 4) (two subunits of the NanoBiT™ luciferase) were incubated with furimazine or furimazine-h for 15 minutes. Following the incubation period, 10 μM furimazine was added. […] This signal rapidly degrades to a fraction of the signal observed in the furimazine positive control wells. Addition of furimazine to the furimazine positive control wells results in an increase in bioluminescence.
A general note: With HiBiT, luminescence reflects the tagged protein that the partner subunit can reach.

T1 sequence (Q9GV45 28-196 with tags or gaps with the stated changes limits assumed): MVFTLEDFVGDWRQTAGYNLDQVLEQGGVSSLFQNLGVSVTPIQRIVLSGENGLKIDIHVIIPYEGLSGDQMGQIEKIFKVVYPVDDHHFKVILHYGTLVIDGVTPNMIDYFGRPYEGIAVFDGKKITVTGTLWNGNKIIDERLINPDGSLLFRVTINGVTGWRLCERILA
NanoBiT™ Binary luciferase, sequence (Q9GV45 other isoform, or with tags, fused parts or gaps with the stated changes): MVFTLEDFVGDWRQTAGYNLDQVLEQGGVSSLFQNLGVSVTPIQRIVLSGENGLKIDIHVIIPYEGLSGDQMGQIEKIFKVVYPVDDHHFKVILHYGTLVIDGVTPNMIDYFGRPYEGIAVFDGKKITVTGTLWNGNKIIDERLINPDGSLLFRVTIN

With `COc1cc2c(c(Cl)c1OC(C)=O)Oc1c(cc(OC)c(OC(C)=O)c1Cl)C21OC(=O)c2ccc(C(=O)NCCCCCCCCOc3ccc(Cc4nc5c(Cc6ccccc6)[nH]c(-c6ccc(O)cc6)cn-5c4=O)cc3F)cc21` [JRW-0986, 6-((8-(4-((8-benzyl-6-(4-hydroxyphenyl)-3-oxo-3,7-dihydroimidazo[1,2-a]pyrazin-2-yl)methyl)-2-fluorophenoxy)octyl)carbamoyl)-4′,5′-dichloro-2′,7′-dimethoxy-3-oxo-3H-spiro[isobenzofuran-1,9′-xanthene]-3′,6′-diyl diacetate], the “RLU (at 100 μM)” value at NanoLuc [1] is listed as 0.00005. The Stability in solution entry in series [2] was “instability in solution”. Moreover, at NanoLuc [3], the “Inhibition of NanoLuc (bioluminescence upon later furimazine addition)” value was “did not inhibit NanoLuc”.
Turning to `CC(=O)Oc1ccc2c(c1)Oc1cc(OC(C)=O)ccc1C21OC(=O)c2ccc(C(=O)NCCCCCCCCOc3ccc(Cc4nc5c(Cc6ccccc6)[nH]c(-c6ccc(O)cc6)cn-5c4=O)cc3F)cc21` [JRW-0972, 6-((8-(4-((8-benzyl-6-(4-hydroxyphenyl)-3-oxo-3,7-dihydroimidazo[1,2-a]pyrazin-2-yl)methyl)-2-fluorophenoxy)octyl)carbamoyl)-3-oxo-3H-spiro[isobenzofuran-1,9′-xanthene]-3′,6′-diyl diacetate], the “RLU (at 100 μM)” value on NanoLuc [1] was found to be 0.00005. For the same compound, in series [2], the Stability in solution result is recorded as “instability in solution”. Besides, the “Inhibition of NanoLuc (bioluminescence upon later furimazine addition)” value at NanoLuc [3] is given as “did not inhibit NanoLuc”.
The like results for `CN(C)c1ccc2c(-c3cc(C(=O)NCCOCCOCCC(=O)NCCCCCCCCOc4ccc(Cc5cc6c(Cc7ccccc7)[nH]c(-c7ccc(O)cc7)cn-6c5=O)cc4F)ccc3C(=O)[O-])c3ccc(N(C)C)cc3[o+]c2c1` [JRW-0927, 4-((2-(2-(3-((8-(4-((1-benzyl-3-(4-hydroxyphenyl)-6-oxo-2,6-dihydropyrrolo[1,2-a]pyrazin-7-yl)methyl)-2-fluorophenoxy)octyl)amino)-3-oxopropoxy)ethoxy)ethyl)carbamoyl)-2-(3,6-bis(dimethylamino)xanthylium-9-yl)benzoate] were, in that order, 0.0000024, “instability in solution” and “did not inhibit NanoLuc”.
`[N-]=[N+]=NCCCCCCCCOc1ccc(Cc2nc3c(Cc4ccccc4)[nH]c(-c4ccc(O)cc4)cn-3c2=O)cc1F` [JRW-1022, 2-(4-((8-azidooctyl)oxy)-3-fluorobenzyl)-8-benzyl-6-(4-hydroxyphenyl)imidazo[1,2-a]pyrazin-3(7H)-one]: at NanoLuc [3], the “Inhibition of NanoLuc (bioluminescence upon later furimazine addition)” value is “partial Nluc inhibitors”. Besides, the “Two-step labeling with DBCO-FAM” value in series [4] (second step DBCO-FAM) is “two-step labeling occurs”.
Turning to `O=C(NCCOCCOCCCCCCCl)OC1CC/C=C/CCC1` (stereo not shown) [JRW-1567, (E)-cyclooct-4-en-1-yl (2-(2-((6-chlorohexyl)oxy)ethoxy)ethyl)carbamate], the “Two-step labeling with tetrazine-FAM (JRW-1577)” value in series [4] is on record as “two-step labeling occurs”.
Take `O=C(NCCCCCCCCOc1ccc(Cc2nc3c(Cc4ccccc4)[nH]c(-c4ccc(O)cc4)cn-3c2=O)cc1F)c1ccc(C(=O)[O-])c(-c2c3ccc(O)cc3[o+]c3cc(O)ccc23)c1` [JRW-0906, 4-((8-(4-((8-benzyl-6-(4-hydroxyphenyl)-3-oxo-3,7-dihydroimidazo[1,2-a]pyrazin-2-yl)methyl)-2-fluorophenoxy)octyl)carbamoyl)-2-(3,6-dihydroxyxanthylium-9-yl)benzoate]: the “RLU (at 100 μM)” value at NanoLuc [1] was 0.036. The “Inhibition of NanoLuc (bioluminescence upon later furimazine addition)” value on NanoLuc [3] is given as “exemplary suicide substrates of NanoLuc”. Moreover, the “Labeling efficiency relative to the chloroalkane-HT system” value in series [5] was about 50%.
For the compound `CN(C)c1ccc2c(-c3cc(C(=O)NCCCCCCCCOc4ccc(Cc5nc6c(Cc7ccccc7)[nH]c(-c7ccc(O)cc7)cn-6c5=O)cc4F)ccc3C(=O)[O-])c3ccc(N(C)C)cc3[o+]c2c1` [JRW-0912, 4-((8-(4-((8-benzyl-6-(4-hydroxyphenyl)-3-oxo-3,7-dihydroimidazo[1,2-a]pyrazin-2-yl)methyl)-2-fluorophenoxy)octyl)carbamoyl)-2-(3,6-bis(dimethylamino)xanthylium-9-yl)benzoate], the “RLU (at 100 μM)” value at NanoLuc [1] was found to be 0.000061. For the same compound, the Stability in solution result in series [2] is “instability in solution”. On NanoLuc [3], the “Inhibition of NanoLuc (bioluminescence upon later furimazine addition)” value was “did not inhibit NanoLuc”.
`O=C(CCC(=O)N1Cc2ccccc2C#Cc2ccccc21)NCCCCCCCCOc1ccc(Cc2nc3c(Cc4ccccc4)[nH]c(-c4ccc(O)cc4)cn-3c2=O)cc1F` [JRW-1549, N^1-(8-(4-((8-benzyl-6-(4-hydroxyphenyl)-3-oxo-3,7-dihydroimidazo[1,2-a]pyrazin-2-yl)methyl)-2-fluorophenoxy)octyl)-N^4-DBCO-succinamide]: the “Two-step labeling with Azide-FAM” value in series [4] (second step Azide-FAM) is “little to no labeling”.
On to `CN(C)c1ccc2c(-c3cc(C(=O)NCCCCCCOc4ccc(Cc5nc6c(Cc7ccccc7)[nH]c(-c7ccc(O)cc7)cn-6c5=O)cc4F)ccc3C(=O)[O-])c3ccc(N(C)C)cc3[o+]c2c1` [JRW-0857, 4-((6-(4-((8-benzyl-6-(4-hydroxyphenyl)-3-oxo-3,7-dihydroimidazo[1,2-a]pyrazin-2-yl)methyl)-2-fluorophenoxy)hexyl)carbamoyl)-2-(3,6-bis(dimethylamino)xanthylium-9-yl)benzoate], for which the “RLU (at 100 μM)” value at NanoLuc [1] is 0.00000029. In series [2], the Stability in solution entry is “instability in solution”. Also, the “Inhibition of NanoLuc (bioluminescence upon later furimazine addition)” value on NanoLuc [3] is “did not inhibit NanoLuc”.
With `O=c1c(Cc2ccco2)nc2c(Cc3ccccc3)[nH]c(-c3ccc(O)cc3)cn1-2` [Furimazine-h, 8-benzyl-2-(furan-2-ylmethyl)-6-(4-hydroxyphenyl)imidazo[1,2-a]pyrazin-3(7H)-one, reference compound], the “RLU (at 100 μM)” value on NanoLuc [1] is reported as 1. The “Inhibition of NanoLuc (bioluminescence upon later furimazine addition)” value at NanoLuc [3] is “NanoLuc is inhibited; also recorded: exemplary suicide substrates of NanoLuc”. Besides, the “Inhibition of NanoLuc, reverse addition” value at NanoLuc [3] (furimazine (10 μM) with NanoLuc in NanoGlo buffer 15 minutes, then compound added) is listed as “rapid signal decay”. Also, the “Inhibition of NanoBiT luciferase” value in series [6] (15 minutes incubation, then 10 μM furimazine added) is given as “effectively inhibited”. The “Initial luminescent signal compared with furimazine” value in series [6] (HiBiT and LgBiT incubated with compound) is on record as “comparable to that of furimazine”.
For the compound `O=C(NCCCCCCCCOc1ccc(Cc2nc3c(Cc4ccccc4)[nH]c(-c4ccc(O)cc4)cn-3c2=O)cc1F)OC1CC/C=C/CCC1` (stereo not shown) [JRW-1566, (E)-cyclooct-4-en-1-yl (8-(4-((8-benzyl-6-(4-hydroxyphenyl)-3-oxo-3,7-dihydroimidazo[1,2-a]pyrazin-2-yl)methyl)-2-fluorophenoxy)octyl)carbamate], the “Two-step labeling with tetrazine-FAM (JRW-1577)” value in series [4] was “two-step labeling of NanoLuc”.
